From publication PMC3277506, “Extra-Renal Elimination of Uric Acid via Intestinal Efflux Transporter BCRP/ABCG2” (PLoS ONE, 2012)
Where two headings read alike, the source gives them in different places.

Experiments:
hMDR1 = target: T1, hMDR1 (Homo sapiens, UniProt P08183); test: [14C]uric acid uptake by hMDR1-expressing membrane vesicles; type: biochemical; settings: [14C]uric acid 20 µM, 5 min, 37°C, 4 mM ATP or AMP
T1 construct: purchased GenoMembrane Inc. (Yokohama, Japan); host or cells: Sf9 cells
T1 sequence (P08183 whole entry): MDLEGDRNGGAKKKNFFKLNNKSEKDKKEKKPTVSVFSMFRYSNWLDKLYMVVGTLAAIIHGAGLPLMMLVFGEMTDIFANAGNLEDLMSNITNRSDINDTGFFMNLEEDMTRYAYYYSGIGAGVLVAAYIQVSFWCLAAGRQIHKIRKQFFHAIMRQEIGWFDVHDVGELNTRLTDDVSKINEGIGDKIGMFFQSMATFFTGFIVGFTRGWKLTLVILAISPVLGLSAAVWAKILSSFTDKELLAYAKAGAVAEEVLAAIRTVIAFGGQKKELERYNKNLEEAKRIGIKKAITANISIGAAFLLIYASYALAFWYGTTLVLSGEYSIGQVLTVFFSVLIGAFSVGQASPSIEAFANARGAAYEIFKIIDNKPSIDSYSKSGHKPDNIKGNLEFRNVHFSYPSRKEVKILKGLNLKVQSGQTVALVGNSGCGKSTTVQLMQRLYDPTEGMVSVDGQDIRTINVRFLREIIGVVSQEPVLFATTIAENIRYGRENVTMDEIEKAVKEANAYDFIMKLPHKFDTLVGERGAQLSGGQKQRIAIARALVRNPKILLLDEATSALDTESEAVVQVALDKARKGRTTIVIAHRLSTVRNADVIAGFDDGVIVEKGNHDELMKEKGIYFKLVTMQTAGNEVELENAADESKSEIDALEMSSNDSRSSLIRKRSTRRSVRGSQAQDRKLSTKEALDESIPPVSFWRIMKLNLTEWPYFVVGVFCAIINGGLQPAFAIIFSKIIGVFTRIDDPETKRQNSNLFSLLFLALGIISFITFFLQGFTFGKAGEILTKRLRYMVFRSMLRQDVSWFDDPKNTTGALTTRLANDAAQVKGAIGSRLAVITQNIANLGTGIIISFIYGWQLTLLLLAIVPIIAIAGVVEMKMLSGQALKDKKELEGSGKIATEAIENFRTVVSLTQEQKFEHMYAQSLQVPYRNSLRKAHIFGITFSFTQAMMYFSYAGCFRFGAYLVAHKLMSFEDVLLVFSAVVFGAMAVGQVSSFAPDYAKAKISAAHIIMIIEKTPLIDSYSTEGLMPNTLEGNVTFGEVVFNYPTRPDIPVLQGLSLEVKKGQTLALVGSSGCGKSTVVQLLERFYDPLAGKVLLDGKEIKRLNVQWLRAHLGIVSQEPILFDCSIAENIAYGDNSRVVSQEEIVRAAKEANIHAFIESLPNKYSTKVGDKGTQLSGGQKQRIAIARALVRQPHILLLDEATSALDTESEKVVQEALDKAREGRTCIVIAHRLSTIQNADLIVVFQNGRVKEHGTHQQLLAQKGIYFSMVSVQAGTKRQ
Procedure: (§1) hBCRP/rBcrp, hMRP2/rMrp2, or hMDR1-expressing membrane vesicles prepared from Sf9 cells were purchased from GenoMembrane Inc. (Yokohama, Japan). Uptake experiments were conducted as described previously. Briefly, after a pre-incubation for 5 min at 37°C, membrane vesicles (50 µg protein/50 µL final reaction volume) were incubated for 5 min at 37°C in the presence of 4 mM ATP or AMP in assay buffer (1 M KCl, 1 M MgCl2, and 100 mM MOPS-Tris, pH 7.0) containing [^14C]uric acid (1 µCi/mL). The uptake reaction was terminated by adding 1 mL ice-cold washing buffer (1 M KCl, and 100 mM MOPS-Tris, pH 7.0) to the membrane solution, and the mixture was rapidly filtered through a nitrocellulose filter (0.45 µm pore size, Millipore, Bedford, MA). The filters were washed twice with 5 mL ice-cold washing buffer. The filters were dried and dissolved in Clearsol-I for quantitation of radioactivity.

rMrp2 = target: T2, rMrp2 (Rattus norvegicus, UniProt Q63120); test: [14C]uric acid uptake by rMrp2-expressing membrane vesicles; type: biochemical; settings: [14C]uric acid 20 µM, 5 min, 37°C, 4 mM ATP or AMP
T2 construct: purchased GenoMembrane Inc. (Yokohama, Japan); host or cells: Sf9 cells
Procedure: as §1

hMRP2 = target: T3, hMRP2 (Homo sapiens, UniProt Q92887); test: [14C]uric acid uptake by hMRP2-expressing membrane vesicles; type: biochemical; settings: [14C]uric acid 20 µM, 5 min, 37°C, 4 mM ATP or AMP
T3 construct: purchased GenoMembrane Inc. (Yokohama, Japan); host or cells: Sf9 cells
T3 sequence (Q92887 whole entry): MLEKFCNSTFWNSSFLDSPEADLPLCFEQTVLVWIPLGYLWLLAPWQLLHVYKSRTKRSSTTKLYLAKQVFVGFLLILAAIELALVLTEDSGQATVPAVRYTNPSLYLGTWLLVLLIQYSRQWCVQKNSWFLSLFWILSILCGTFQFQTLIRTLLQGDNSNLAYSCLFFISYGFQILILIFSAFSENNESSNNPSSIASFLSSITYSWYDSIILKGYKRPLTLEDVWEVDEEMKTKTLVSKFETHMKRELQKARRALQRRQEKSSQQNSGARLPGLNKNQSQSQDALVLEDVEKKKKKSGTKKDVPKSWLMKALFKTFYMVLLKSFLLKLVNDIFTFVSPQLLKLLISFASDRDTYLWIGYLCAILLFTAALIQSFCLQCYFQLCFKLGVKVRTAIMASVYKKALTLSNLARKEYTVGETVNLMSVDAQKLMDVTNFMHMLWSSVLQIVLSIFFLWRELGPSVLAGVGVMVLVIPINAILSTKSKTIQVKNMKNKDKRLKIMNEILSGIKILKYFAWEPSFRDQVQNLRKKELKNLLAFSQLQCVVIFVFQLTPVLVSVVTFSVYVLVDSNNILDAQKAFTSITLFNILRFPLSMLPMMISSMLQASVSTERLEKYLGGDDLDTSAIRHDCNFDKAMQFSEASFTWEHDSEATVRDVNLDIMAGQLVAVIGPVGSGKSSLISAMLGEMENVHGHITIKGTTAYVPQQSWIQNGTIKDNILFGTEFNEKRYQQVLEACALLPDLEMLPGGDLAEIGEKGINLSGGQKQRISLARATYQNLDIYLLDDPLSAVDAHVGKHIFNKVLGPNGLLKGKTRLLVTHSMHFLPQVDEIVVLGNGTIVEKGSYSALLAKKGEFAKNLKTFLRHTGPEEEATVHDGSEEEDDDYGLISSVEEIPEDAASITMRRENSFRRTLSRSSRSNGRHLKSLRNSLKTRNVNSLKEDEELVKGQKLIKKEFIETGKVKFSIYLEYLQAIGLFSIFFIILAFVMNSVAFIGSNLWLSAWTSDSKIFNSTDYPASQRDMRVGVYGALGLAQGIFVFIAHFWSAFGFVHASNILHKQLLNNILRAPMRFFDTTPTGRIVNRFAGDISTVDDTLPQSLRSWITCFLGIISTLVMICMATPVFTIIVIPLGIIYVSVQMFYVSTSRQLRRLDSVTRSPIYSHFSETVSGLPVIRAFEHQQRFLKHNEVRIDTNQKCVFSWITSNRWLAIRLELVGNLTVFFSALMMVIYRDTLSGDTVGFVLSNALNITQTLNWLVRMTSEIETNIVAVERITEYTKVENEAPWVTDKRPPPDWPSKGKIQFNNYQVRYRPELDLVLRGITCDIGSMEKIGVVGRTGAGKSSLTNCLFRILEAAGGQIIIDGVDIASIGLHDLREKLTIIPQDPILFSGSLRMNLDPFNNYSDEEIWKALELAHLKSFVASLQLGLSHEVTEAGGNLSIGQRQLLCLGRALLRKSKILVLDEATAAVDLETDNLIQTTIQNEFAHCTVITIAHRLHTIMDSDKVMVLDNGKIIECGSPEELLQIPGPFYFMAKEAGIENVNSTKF
Procedure: as §1

[1] = Recovery of [14C]uric acid after intravenous administration in oxonate-treated rats; type: in vivo; settings: percentage of dose; for dose excreted: male, Wistar, rat, iv, 2 µCi/rat
Procedure: Male Wistar rats (280±30 g body weight) used in the present study were treated with potassium oxonate, a uric acid oxidase (uricase) inhibitor. Oxonate-treated rats were established as described previously, [48]. Briefly, rats were anesthetized with 50% urethane (2 mL/kg) and infused with 0.9% NaCl, 0.5% oxonate and 4% mannitol solution from the femoral vein at the flow rate of 3 mL/hr. As a bolus, 0.9% NaCl, 1.5% oxonate and 4% mannitol solution was administered from the jugular vein at 6 mL/kg. After equilibration for 80 min, blood, urine and bile samples were collected at 20-min intervals. When [^14C]uric acid (2 µCi/rat) was used, it was intravenously injected from the jugular vein after oxonate treatment for 80 min. In order to suppress the uricolysis of [^14C]uric acid by intestinal flora, animals received orally non-absorbed antibiotics, polymyxin B, kanamycin, and vancomycin at daily doses of 50, 50 and 20 mg/kg, respectively, for 7 days before this animal study. Urine and bile were collected at 20-min intervals, and blood samples were drawn at 1, 5, 10, 20, 40, 60, 80, 100 and 120 min. Urine and bile were collected from bladder and bile ducts, respectively, and blood from the jugular vein. In mice, urine was collected for 24 hours by using metabolic cages (Natsume, Tokyo, Japan).

rMdr1a = target: T4, rMdr1a (Rattus norvegicus, UniProt Q6PSM0); test: Bidirectional transport of uric acid in LLC-PK1 cells expressing rMdr1a; type: in vitro ADME; settings: data not shown
T4 construct: expressed in transfected cells; host or cells: LLC-PK1 cells
T4 sequence (Q6PSM0 1-1272): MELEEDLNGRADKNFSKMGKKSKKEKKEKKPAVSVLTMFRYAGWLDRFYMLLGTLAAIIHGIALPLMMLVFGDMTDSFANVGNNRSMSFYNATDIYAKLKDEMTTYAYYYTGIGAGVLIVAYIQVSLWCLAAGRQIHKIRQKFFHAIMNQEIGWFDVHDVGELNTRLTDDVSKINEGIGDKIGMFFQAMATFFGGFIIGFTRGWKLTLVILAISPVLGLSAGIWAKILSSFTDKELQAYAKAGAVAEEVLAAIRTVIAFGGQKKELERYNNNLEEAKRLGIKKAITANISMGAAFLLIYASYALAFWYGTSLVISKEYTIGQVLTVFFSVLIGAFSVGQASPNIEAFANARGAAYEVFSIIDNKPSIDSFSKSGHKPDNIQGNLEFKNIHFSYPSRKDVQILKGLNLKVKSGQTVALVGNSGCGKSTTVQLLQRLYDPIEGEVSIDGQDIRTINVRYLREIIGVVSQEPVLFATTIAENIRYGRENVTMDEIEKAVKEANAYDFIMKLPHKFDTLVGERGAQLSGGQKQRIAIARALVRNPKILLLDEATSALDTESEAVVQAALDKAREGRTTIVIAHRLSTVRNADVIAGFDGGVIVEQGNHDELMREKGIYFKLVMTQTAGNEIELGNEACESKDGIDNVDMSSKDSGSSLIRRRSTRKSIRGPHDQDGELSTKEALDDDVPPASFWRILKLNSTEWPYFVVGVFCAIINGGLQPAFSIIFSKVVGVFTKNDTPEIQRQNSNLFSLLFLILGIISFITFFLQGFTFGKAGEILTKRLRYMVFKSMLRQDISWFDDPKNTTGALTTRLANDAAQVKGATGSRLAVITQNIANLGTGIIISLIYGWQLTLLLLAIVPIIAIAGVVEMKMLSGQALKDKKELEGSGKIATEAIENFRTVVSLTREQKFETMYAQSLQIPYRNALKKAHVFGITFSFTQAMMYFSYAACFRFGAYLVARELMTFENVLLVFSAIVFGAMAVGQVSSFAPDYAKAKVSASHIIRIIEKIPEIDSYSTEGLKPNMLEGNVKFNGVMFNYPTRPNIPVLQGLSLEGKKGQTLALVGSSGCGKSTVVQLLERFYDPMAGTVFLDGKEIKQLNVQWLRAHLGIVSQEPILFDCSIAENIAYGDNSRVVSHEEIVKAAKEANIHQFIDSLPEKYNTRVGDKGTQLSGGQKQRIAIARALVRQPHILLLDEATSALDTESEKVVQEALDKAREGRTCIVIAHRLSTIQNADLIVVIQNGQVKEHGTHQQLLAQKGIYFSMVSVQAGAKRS

rBcrp = target: T5, rBcrp (Rattus norvegicus, UniProt Q80W57); test: [14C]uric acid uptake by rBcrp-expressing membrane vesicles; type: biochemical; parameters: purchased GenoMembrane Inc. (Yokohama, Japan); host or cells: Sf9 cells
T5 sequence (Q80W57 1-657): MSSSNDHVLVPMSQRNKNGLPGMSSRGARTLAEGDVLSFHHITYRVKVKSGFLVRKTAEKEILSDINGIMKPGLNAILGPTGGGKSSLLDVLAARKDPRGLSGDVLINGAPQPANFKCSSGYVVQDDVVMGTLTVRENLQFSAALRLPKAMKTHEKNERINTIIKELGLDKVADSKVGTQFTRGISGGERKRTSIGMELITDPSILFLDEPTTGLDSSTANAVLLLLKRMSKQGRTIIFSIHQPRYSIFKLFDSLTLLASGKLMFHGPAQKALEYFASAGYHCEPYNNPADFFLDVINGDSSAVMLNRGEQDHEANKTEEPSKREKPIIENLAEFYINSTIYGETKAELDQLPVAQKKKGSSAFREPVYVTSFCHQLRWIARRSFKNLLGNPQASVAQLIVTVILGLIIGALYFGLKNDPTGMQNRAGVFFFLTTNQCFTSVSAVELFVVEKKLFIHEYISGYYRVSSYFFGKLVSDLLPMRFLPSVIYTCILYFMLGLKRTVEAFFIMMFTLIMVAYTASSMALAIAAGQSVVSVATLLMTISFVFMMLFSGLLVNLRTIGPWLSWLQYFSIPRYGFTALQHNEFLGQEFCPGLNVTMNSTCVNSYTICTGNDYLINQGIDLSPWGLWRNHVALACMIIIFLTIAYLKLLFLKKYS
Procedure: as §1

[2] = humans; cited from earlier work
[3] = Intestinal secretion of endogenous uric acid, in situ intestinal closed loop method, oxonate-treated rats; type: in vivo, rat; settings: 60 min, no inhibitor
Procedure: We evaluated intestinal secretion of endogenous uric acid according to the method described previously, with some modifications. Rats were anesthetized with 50% urethane and treated with oxonate by the same method as in the in vivo animal study described above. Intestinal closed loops were made at different segments: jejunum (10 cm), ileum (10 cm), and colon (3–5 cm). Phosphate-buffered solution (PB, 0.075 M NaH2PO4 - 0.075 M Na2HPO4, pH 6.5) or inhibitor-containing PB was injected into the intestinal loop. After 60 min, the remaining luminal content in each loop was washed out and collected for quantitation. Blood was obtained from the jugular vein at 1, 20, 40 and 60 min. Plasma was obtained by centrifugation and used for quantitation.
The following equation was used to calculate intestinal secretory clearance (µL/min/cm loop) and estimated total intestinal secretory clearance (CLintestine, estimated) (mL/min): [drawing 1] [drawing 2] [drawing 3] where A is the amount of uric acid secreted into the intestinal lumen of each loop for 60 min, L is the length of the intestine, and AUC is area under the plasma concentration-time curve.

ATP-dependent uric acid uptake (hMDR1): inactive
ATP-dependent uric acid uptake (rMrp2): Slight
ATP-dependent uric acid uptake (hMRP2): inactive
dose excreted ([1]; bile + intestine, up to 120 min, read-out: Recovery of [14C]uric acid, Bile+Intestine): 9.58%
dose excreted ([1]; bile, up to 120 min, read-out: Recovery of [14C]uric acid, Bile): 0.68%
dose excreted ([1]; urine, up to 120 min, read-out: Recovery of [14C]uric acid, Urine): 42.6%
Recovery of [14C]uric acid, Cp×Vd (remaining in the body) ([1]; iv 2 µCi/rat, 2 hrs after administration, rough estimation from distribution volume and plasma concentration): 4.55%
Recovery of [14C]uric acid, Intestine (luminal contents) ([1]; iv 2 µCi/rat, up to 120 min): 8.90%
Recovery of [14C]uric acid, Urine ([1]; iv 2 µCi/rat, up to 120 min): 42.58%
Secretory versus absorptive transport of uric acid (rMdr1a): no significant difference
Vmax of uric acid transport by rBcrp (rBcrp; ATP-dependent uptake, maximum uric acid concentration 5 mM): 67.3±4.21 nmol/5 min/mg protein
Uptake of uric acid in the presence of ATP versus AMP (rBcrp; [14C]uric acid 20 µM, 5 min, 37°C, 4 mM ATP or AMP): significantly higher
Intestinal secretion clearance of endogenous uric acid ([3]; colon closed loop): 0.76±0.17 µL/min/cm loop
Intestinal secretion clearance of endogenous uric acid ([3]; ileum closed loop): 1.58±0.13 µL/min/cm loop
Intestinal secretion clearance of endogenous uric acid ([3]; jejunum closed loop): 0.49±0.03 µL/min/cm loop
SMILES: O=c1[nH]c(=O)c2[nH]c(=O)[nH]c2[nH]1 [uric acid]
Biliary clearance of uric acid [2]: 0.1 to 0.3 mL/min
Uric acid concentration in bile [2]: 1 to 2 mg/dL
Urinary clearance of uric acid [2]: 5.8 to 6.3 mL/min
